Source: patent US7595395B2, “Gabaergic agents to treat memory deficits” (priority 2005, dated 2009)

Assays:
GABAA/α3 receptors = GABAA/α3 receptors (Homo sapiens, UniProt P18507+P34903); settings: Huang et al. 2000, WO 03/082832A2; cited from earlier work
GABAA/α5 receptors = GABAA/α5 receptors (Homo sapiens, UniProt P18507+P31644); settings: Huang et al. 2000, WO 03/082832A2; cited from earlier work
GABAA/α2 receptors = GABAA/α2 receptors (Homo sapiens, UniProt P18507+P47869); settings: Huang et al. 2000, WO 03/082832A2; cited from earlier work
GABAA/α1 receptors = GABAA/α1 receptors (Homo sapiens, UniProt P14867+P18507); settings: Huang et al. 2000, WO 03/082832A2; cited from earlier work
C57B1/6 mice = settings: DeLorey et al.; cited from earlier work
α1β3γ2 GABAA receptor = α1β3γ2 GABAA receptor (Rattus norvegicus, UniProt P18508+P62813); experiment: Two-electrode voltage clamp in Xenopus oocytes, α1β3γ2; settings: α1β3γ2
α2β3γ2 GABAA receptor = α2β3γ2 GABAA receptor (Rattus norvegicus, UniProt P18508+P23576); experiment: Two-electrode voltage clamp in Xenopus oocytes, α2β3γ2; settings: α2β3γ2
[1] = test system: αxβ3γ2 (α = 1-6) BzR/GABA(A) subtypes; experiment: Binding across the BzR/GABA(A) subtypes (subtype selectivity in words); parameters: species or system human and rat
Description: The binding affinity of XLi093 (8) in vitro was determined on α1-6β3γ2 LTK cells and is illustrated in the Scheme as shown in FIG. 2
The affinity of all ligands at the 6 major recombinant GABAA/BzR subtypes was measured by competition for [^3H]Ro15-1788 binding to HEK-T cells expressing both human and rat GABAA/Bz receptors of composition α1β2γ2 (α1), α2β2γ2 (α2), α3β2γ2 (α3), α4β2γ2 (α4), α5β2γ2 (α5) and α6β2γ2 (α6). It is well known that the β2 and β3 subunits can be interchanged with no effect on Bz ligand affinity or efficacy. […] These studies are similar to those performed in the laboratory of Bryan Roth who has already expressed the receptors employing the work of Kucken et. al. and Gray et. al.
In brief, for membrane preparations, the cells were scraped on to the ice and diluted into 5 mL of phosphate buffered saline (pH=7.40) and cells pelleted by centrifugation for 5 min. at 4° C. The pellet was resuspended in 1 mL of 50 mM Tris-acetate buffer (pH 7.4) and centrifuged at 18,000 g for 20 min. […] The membranes were harvested in polyethyleneimine-pretreated Whatman GF/C filters and after drying and addition of scintillation cocktail, counted in a scintillation counter. […]

[2] = biological target: T1, α5β3γ2 benzodiazepine receptor GABA(A) isoform (UniProt P18507+P31644); experiment: Radioligand competition binding, α5β3γ2 BzR/GABA(A) isoform; parameters: rows headed: Ki at α5β3γ2 subtypes; other: text; α1-6β3γ2 LTK cells; species or system human and rat; settings: read-out: Ki at α5β3γ2 subtypes; α1-6β3γ2 LTK cells
T1 sequence (P18507 1-475): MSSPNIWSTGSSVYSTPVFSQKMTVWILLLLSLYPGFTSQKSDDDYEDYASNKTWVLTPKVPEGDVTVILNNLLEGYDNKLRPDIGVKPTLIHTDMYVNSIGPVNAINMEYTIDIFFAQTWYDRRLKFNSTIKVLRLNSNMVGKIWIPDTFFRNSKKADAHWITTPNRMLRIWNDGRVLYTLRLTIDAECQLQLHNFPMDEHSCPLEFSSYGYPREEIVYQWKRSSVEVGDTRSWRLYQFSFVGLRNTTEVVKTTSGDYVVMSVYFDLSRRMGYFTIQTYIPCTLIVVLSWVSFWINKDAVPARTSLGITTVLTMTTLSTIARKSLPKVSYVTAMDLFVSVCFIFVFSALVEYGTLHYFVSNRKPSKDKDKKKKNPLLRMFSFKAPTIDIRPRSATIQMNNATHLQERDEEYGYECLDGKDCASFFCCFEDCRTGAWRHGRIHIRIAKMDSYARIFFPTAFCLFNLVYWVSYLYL
T1 sequence (P31644 1-462): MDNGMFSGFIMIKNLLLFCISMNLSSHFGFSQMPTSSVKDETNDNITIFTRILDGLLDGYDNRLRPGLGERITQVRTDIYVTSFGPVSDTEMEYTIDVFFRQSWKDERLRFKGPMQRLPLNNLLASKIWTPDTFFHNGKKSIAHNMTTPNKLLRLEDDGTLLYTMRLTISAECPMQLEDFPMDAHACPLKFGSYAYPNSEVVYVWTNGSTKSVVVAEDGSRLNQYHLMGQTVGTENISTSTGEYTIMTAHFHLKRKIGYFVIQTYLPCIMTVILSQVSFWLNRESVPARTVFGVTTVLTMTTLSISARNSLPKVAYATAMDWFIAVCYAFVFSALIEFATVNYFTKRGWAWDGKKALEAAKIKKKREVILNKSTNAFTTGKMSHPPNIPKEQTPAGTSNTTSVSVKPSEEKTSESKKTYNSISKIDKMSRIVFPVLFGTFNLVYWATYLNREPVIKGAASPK

α5β3γ2 GABAA receptor = α5β3γ2 GABAA receptor (Rattus norvegicus, UniProt P18508+P19969); experiment: Two-electrode voltage clamp in Xenopus oocytes, α5β3γ2
α3β3γ2 GABAA receptor = α3β3γ2 GABAA receptor (Rattus norvegicus, UniProt P18508+P20236); experiment: Two-electrode voltage clamp in Xenopus oocytes, α3β3γ2; settings: α3β3γ2
[3] = test system: GABAA receptor subtypes (alpha 1 to alpha 6 with beta 3 and gamma 2); experiment: Direct triggering of chloride currents in oocytes, all tested subtypes; type: cell-based; settings: up to a concentration of 1 nM, no GABA
C57BL/6J mice = experiment: Titrating delayed matching-to-position schedule; type: in vivo
Description: In regard to cognition, the effect of systemic administration of subtype selective agents on short term memory was determined in white Carneau pigeons. Administration of drug was intramuscularly and the titrating matching-to-sample schedule of reinforcement was used. […] In addition, C57BL/6J mice were used to look at the mean delay achieved in the titrating delayed matching-to-position schedule (doses, ip).

[4] = Crossing of the blood brain barrier; settings: in vivo

Sequence of α5β3γ2 GABAA receptor (P19969 26-464): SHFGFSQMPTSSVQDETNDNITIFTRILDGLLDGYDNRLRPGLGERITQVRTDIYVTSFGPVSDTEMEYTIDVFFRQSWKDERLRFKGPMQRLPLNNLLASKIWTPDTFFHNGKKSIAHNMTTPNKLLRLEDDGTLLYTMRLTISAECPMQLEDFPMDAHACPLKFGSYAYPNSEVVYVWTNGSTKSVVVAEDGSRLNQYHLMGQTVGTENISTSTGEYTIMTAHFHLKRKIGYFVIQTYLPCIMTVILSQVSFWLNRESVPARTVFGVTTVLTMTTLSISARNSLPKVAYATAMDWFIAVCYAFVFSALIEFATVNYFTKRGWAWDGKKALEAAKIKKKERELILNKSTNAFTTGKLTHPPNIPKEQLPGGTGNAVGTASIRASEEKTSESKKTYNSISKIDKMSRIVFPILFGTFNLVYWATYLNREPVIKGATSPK
Sequence of α5β3γ2 GABAA receptor (P63079 26-473 partner): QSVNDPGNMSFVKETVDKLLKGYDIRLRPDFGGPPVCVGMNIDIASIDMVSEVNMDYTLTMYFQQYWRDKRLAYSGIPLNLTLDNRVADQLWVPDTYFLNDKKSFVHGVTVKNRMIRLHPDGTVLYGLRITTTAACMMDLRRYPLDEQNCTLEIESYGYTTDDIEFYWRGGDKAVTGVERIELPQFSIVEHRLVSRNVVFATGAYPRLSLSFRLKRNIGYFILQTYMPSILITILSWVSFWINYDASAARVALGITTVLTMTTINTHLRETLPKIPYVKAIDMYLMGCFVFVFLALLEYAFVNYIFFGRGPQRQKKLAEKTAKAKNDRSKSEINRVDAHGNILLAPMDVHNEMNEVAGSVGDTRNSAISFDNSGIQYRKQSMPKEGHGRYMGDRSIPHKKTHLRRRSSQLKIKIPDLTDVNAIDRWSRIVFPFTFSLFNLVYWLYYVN
Sequence of α5β3γ2 GABAA receptor (P18508 39-466): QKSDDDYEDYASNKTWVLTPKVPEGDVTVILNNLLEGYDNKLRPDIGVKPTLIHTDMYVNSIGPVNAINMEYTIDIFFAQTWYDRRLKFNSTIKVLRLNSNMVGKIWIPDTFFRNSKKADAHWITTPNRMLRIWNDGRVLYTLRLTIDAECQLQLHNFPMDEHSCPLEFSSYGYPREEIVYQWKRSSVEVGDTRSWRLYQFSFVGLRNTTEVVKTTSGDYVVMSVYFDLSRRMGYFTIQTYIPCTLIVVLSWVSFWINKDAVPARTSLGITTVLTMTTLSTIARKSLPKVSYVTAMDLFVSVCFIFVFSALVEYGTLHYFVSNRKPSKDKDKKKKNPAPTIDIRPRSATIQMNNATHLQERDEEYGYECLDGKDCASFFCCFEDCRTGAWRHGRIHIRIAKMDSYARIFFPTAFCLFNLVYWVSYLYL
Sequence of α2β3γ2 GABAA receptor (P23576 29-451): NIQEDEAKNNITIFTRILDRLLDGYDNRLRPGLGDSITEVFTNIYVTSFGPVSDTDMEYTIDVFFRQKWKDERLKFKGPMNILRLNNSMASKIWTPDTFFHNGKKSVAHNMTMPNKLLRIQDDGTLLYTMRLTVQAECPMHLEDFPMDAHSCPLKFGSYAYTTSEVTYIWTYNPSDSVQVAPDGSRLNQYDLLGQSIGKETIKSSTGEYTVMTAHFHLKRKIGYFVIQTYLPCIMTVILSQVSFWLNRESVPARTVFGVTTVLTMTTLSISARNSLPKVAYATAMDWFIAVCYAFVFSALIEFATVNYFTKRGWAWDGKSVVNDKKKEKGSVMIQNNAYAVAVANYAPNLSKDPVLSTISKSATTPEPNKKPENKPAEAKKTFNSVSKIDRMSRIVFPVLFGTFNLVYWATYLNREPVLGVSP
Sequence of α2β3γ2 GABAA receptor (P63079 26-473 partner): as the sequence (P63079 26-473 partner) above
Sequence of α2β3γ2 GABAA receptor (P18508 39-466): as the sequence (P18508 39-466) above
Sequence of α1β3γ2 GABAA receptor (P62813 28-455): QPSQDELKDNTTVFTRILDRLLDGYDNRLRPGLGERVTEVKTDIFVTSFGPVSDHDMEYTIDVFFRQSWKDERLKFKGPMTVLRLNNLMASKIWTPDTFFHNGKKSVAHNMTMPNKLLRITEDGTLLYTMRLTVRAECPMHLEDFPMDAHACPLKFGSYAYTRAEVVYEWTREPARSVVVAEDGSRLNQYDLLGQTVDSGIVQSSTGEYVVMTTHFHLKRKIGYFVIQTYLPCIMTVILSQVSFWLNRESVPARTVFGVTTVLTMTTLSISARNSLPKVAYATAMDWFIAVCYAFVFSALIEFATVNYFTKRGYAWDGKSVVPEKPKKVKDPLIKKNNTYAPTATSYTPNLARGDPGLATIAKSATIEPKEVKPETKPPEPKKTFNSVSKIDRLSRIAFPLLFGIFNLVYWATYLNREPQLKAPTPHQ
Sequence of α1β3γ2 GABAA receptor (P63079 26-473 partner): as the sequence (P63079 26-473 partner) above
Sequence of α1β3γ2 GABAA receptor (P18508 39-466): as the sequence (P18508 39-466) above
Sequence of α3β3γ2 GABAA receptor (P20236 29-493): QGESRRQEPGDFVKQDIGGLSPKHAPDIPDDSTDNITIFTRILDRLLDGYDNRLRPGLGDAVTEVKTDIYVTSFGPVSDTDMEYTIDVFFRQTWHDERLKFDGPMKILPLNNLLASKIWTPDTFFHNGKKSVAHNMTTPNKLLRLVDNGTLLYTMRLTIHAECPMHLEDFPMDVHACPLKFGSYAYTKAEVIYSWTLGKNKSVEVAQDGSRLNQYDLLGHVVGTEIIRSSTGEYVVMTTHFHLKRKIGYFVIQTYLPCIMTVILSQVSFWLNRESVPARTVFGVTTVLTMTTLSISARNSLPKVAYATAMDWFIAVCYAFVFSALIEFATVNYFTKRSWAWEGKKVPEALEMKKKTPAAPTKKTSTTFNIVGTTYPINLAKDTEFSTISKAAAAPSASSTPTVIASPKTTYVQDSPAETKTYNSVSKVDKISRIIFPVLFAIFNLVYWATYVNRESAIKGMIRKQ
Sequence of α3β3γ2 GABAA receptor (P63079 26-473 partner): as the sequence (P63079 26-473 partner) above
Sequence of α3β3γ2 GABAA receptor (P18508 39-466): as the sequence (P18508 39-466) above
Sequence of GABAA/α5 receptors (P28472 26-473 partner, one chain of several): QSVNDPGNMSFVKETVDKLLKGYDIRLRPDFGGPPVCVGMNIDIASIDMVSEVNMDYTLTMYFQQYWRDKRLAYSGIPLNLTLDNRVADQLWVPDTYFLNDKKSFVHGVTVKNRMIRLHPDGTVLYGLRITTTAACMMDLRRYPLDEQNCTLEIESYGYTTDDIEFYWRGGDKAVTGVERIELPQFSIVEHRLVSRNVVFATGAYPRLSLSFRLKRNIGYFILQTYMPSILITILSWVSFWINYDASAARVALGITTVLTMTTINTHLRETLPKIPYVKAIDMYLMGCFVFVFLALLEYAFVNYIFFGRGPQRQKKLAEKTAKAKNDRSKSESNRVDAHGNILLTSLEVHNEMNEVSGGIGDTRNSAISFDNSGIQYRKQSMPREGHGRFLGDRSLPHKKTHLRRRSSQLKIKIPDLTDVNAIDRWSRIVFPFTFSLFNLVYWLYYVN
Sequence of GABAA/α1 receptors (P14867 28-456, one chain of several): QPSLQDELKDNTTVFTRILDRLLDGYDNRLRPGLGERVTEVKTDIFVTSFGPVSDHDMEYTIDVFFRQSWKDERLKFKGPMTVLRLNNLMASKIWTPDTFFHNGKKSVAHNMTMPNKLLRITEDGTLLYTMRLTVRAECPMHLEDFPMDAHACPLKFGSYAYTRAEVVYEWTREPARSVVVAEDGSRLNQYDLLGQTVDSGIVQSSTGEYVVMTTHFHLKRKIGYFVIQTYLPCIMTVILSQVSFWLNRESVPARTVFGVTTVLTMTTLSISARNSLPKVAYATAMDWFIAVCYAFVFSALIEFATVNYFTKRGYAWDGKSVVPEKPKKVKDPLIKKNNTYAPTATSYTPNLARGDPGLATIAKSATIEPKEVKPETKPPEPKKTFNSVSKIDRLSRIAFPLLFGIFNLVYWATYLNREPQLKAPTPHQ
Sequence of GABAA/α1 receptors (P28472 26-473 partner, one chain of several): as the sequence (P28472 26-473 partner, one chain of several) above
Sequence of GABAA/α2 receptors (P47869 29-451, one chain of several): as the sequence (P23576 29-451) above, with S88L, P174A, G330A counted along it
Sequence of GABAA/α2 receptors (P28472 26-473 partner, one chain of several): as the sequence (P28472 26-473 partner, one chain of several) above
Sequence of GABAA/α3 receptors (P34903 29-492, one chain of several): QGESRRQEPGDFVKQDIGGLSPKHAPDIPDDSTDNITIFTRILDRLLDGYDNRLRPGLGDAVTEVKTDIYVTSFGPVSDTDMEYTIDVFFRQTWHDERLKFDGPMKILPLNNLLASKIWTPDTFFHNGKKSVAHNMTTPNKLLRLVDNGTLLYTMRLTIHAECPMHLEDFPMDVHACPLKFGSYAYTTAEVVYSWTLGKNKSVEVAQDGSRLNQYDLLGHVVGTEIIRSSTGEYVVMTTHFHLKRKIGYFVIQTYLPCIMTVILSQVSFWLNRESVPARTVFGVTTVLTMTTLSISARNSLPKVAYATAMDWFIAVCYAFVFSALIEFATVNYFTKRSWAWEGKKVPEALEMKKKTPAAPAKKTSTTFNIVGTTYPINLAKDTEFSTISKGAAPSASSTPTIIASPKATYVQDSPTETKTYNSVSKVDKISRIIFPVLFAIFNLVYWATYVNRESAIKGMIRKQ
Sequence of GABAA/α3 receptors (P28472 26-473 partner, one chain of several): as the sequence (P28472 26-473 partner, one chain of several) above

## C#Cc1ccc2c(c1)C(c1ccccc1)=NCC(=O)N2C [QH-ii-066]
GABAA/α3 receptors
  Ki: < 50 nM
GABAA/α5 receptors
  Ki: < 10 nM
GABAA/α2 receptors
  Ki: < 50 nM
GABAA/α1 receptors
  Ki: > 70 nM

## CCOC(=O)c1ncn2c1CN(C)C(=O)c1cc(CC)ccc1-2 [RY10, Ethyl 8-Ethyl-5,6-dihydro-5-methyl-6-oxo-4H-imidazo[1,5a][1,4]benzodiazepine-3-carboxylate]
C57B1/6 mice
  reversal of scopolamine-induced memory impairment (in words): potently reversed scopolamine-induced memory impairment

## C#Cc1ccc2c(c1)C(=O)N(C)Cc1c(C(=O)OCCCOC(=O)c3ncn4c3CN(C)C(=O)c3cc(C#C)ccc3-4)ncn1-2 [XLi-093, 1,3-Bis(8-acetyleno-5,6-dihydro-5-methyl-6-oxo-4H-imidazo[1,5a][1,4]-benzodiaze-pine-3-carboxy)propyl diester]
α1β3γ2 GABAA receptor; 1 uM
  modulation of GABA induced chloride flux (in words): did not modulate
α1β3γ2 GABAA receptor; 1 μM
  influence on diazepam stimulation of GABA-induced current (in words): only marginally influenced
α2β3γ2 GABAA receptor; 1 uM
  modulation of GABA induced chloride flux (in words): did not modulate
α2β3γ2 GABAA receptor; 1 μM
  influence on diazepam stimulation of GABA-induced current (in words): only marginally influenced
[1]
  affinity at other BzR/GABA(A) subtypes than α5 (in words): little or no affinity
[2]
  Ki: 15 nM
α5β3γ2 GABAA receptor; 1 uM, α5β3γ2
  modulation of GABA induced chloride flux (in words): very slightly inhibited currents
α5β3γ2 GABAA receptor; 1 μM, α5β3γ2
  influence on diazepam stimulation of GABA-induced current (in words): shifted the diazepam dose response curve to the right
α5β3γ2 GABAA receptor; α5β3γ2 receptors
  inhibition of diazepam-stimulated currents (in words): dose dependently and completely inhibit
α3β3γ2 GABAA receptor; 1 uM
  modulation of GABA induced chloride flux (in words): did not modulate
α3β3γ2 GABAA receptor; 1 μM
  influence on diazepam stimulation of GABA-induced current (in words): only marginally influenced
[3]
  triggering of chloride currents (in words): did not trigger chloride currents
C57BL/6J mice
  performance / mean delay under titrating delayed matching to position schedule (in words): does indeed enhance performance
[4]
  crossing of the blood brain barrier (in words): does cross the blood brain barrier
